Assay results as given in patent US20170000903A1, “CRYSTALLINE CELLULOSE GEL-BASED CRYPTANDS, SURFACE ACTIVE AGENTS, EMULSIONS AND VESICLES” (UNIVERSITY OF SASKATCHEWAN, priority 2013, published 2017).

Legend:
[1] = Dye release from crystalline cellulose gel to liquid phase (visual and spectrophotometric); format: physicochemical; settings: for release pattern from crystalline cellulose gel (very slow, slow, fast, very fast): categorised from absorbance in the liquid phase, 0-72 hours; for dye release to liquid phase, absorbance: over 72 hours, 10 ml RO water over gel, at absorbance maximum of dye, 4 AU = saturation; for colour of solution above the precipitate after 72 hours (dye diffusion out of cellulose crystals): 72 hours at room temperature (approximately 21-22° C.), visual
Experimental: Approximately 2 ml aliquots of 3% w/v crystalline cellulose gel samples containing small solid cellulose crystals were thoroughly mixed with respective model dye solutions and incubated for 30 minutes at room temperature. The stained samples where then centrifuged. The supernatant was decanted, and the pellets containing crystalline cellulose were washed several times with reverse osmosis water and centrifuged. The cycles of washing and centrifugation were repeated until water in which cellulose gel was suspended was clear. After the final wash, small samples of each gel were taken for microscopic examination, and the gels in each tube were covered with a 10 ml column of RO water. These preparations served as media for monitoring the rate of dye release from crystalline cellulose gel to the surrounding liquid phase. Following a few minutes of sample equilibration, 500 μl of the liquid phase was withdrawn from each preparation for spectroscopic measurements to establish absorbance values at time 0. Subsequently, 500 μl samples of the liquid phase were collected at 2, 6, 12, 24, 48, and 72 hour intervals for monitoring of dye release to the liquid phase from the cellulose matrix over time.

[2] = cited from earlier work
[3] = Solubility of Clotrimazole in water / methanol, dark field microscopy; format: physicochemical
Source text: The methanol solution was then mixed with 1% cellulose gel (treatment) and water (positive control). All samples were examined under a dark field microscope.

[4] = 1 mg per ml, dark field microscope

SMILES	release pattern from crystalline cellulose gel (very slow, slow, fast, very fast) [1]	dye release to liquid phase, absorbance [1]	colour of solution above the precipitate after 72 hours (dye diffusion out of cellulose crystals) [1]	solubility in organic solvents (known property) [2]	solubility in water (known property) [2]	solubility in methanol [3, 4]	solubility in water [3, 4]	behaviour of methanol solution mixed with water ([3]; methanol solution 1 mg per ml mixed with water)
CCN(CC)c1ccc(C(=C2C=CC(=[N+](CC)CC)C=C2)c2ccccc2)cc1 [brilliant green, Brilliant Green]	very fast	4 AU	–	–	–	–	–	–
Oc1cc2c(cc1O)[C@@H]1c3ccc(O)c(O)c3OC[C@]1(O)C2 [haematoxylin, Hematoxilin]	slow	0.09 AU	diffused out of the precipitated cellulose crystals	–	–	–	–	–
CCN(Cc1cccc(S(=O)(=O)[O-])c1)c1ccc(C(=C2C=CC(=[N+](CC)Cc3cccc(S(=O)(=O)O)c3)C=C2)c2ccc(S(=O)(=O)O)cc2)cc1 [light green, Light Green]	very fast	4 AU	–	–	–	–	–	–
CN(C)c1ccc(C(=C2C=CC(=[N+](C)C)C=C2)c2ccccc2)cc1.[Cl-] [malachite green, Malachite Green]	slow	0.32 AU	–	–	–	–	–	–
Cc1cc2nc3cc(C)c(N)cc3[n+](-c3ccccc3)c2cc1N [safranine, Safranine]	slow	0.08 AU	slight pinkish hue	–	–	–	–	–
CN(C)c1ccc2nc3ccc(=[N+](C)C)cc-3sc2c1 [methylene blue, Methylene Blue]	very slow	0.025 AU	slight bluish hue	–	–	–	–	–
Nc1c(/N=N/c2ccc(-c3ccc(/N=N/c4cc(S(=O)(=O)[O-])c5ccccc5c4N)cc3)cc2)cc(S(=O)(=O)[O-])c2ccccc12.[Na+].[Na+] [congo red, Congo Red]	slow	0.128 AU	diffused out of the precipitated cellulose crystals	–	–	–	–	–
Clc1ccccc1C(c1ccccc1)(c1ccccc1)n1ccnc1 [Clotrimazole]	–	–	–	soluble in acetone, chloroform, methanol and ethanol	practically insoluble in water	totally dissolved in methanol	not soluble in water	fine crystals precipitated
